Reference: patent US11498899B2, “Nitrone herbicides” (FMC Corporation, priority 2016, dated 2022)

Columns and labels:
[1] = tested on: ducksalad (Heteranthera limosa); test: Test B flooded paddy test, visual rating 0-100; details: Flood, 250 g ai/ha, applied to paddy water, rated after 13 to 15 days
[2] = tested on: barnyardgrass (Echinochloa crus-galli); test: Test B flooded paddy test, visual rating 0-100; details: Flood, 250 g ai/ha, applied to paddy water, rated after 13 to 15 days
kochia (Kochia scoparia) [3] = test: Test A preemergence, visual injury rating 0-100; assay type: in vivo; details: for Kochia plant response rating: 31 g ai/ha, 0 to 100 scale (0 no effect, 100 complete control), approx. 10 days
[4] = tested on: ryegrass, Italian (Italian ryegrass, Lolium multiflorum); test: Test A preemergence, visual injury rating 0-100; assay type: in vivo; details: for Ryegrass, Italian plant response rating: 31 g ai/ha, 0 to 100 scale (0 no effect, 100 complete control), approx. 10 days
[5] = tested on: ragweed (common ragweed, Ambrosia elatior); test: Test A preemergence, visual injury rating 0-100; assay type: in vivo; details: for Ragweed plant response rating: 31 g ai/ha, 0 to 100 scale (0 no effect, 100 complete control), approx. 10 days
[6] = tested on: foxtail, giant (giant foxtail, Setaria faberii); test: Test A preemergence, visual injury rating 0-100; assay type: in vivo; details: for Foxtail, Giant plant response rating: 31 g ai/ha, 0 to 100 scale (0 no effect, 100 complete control), approx. 10 days
[7] = tested on: pigweed (Amaranthus retroflexus); test: Test A preemergence, visual injury rating 0-100; assay type: in vivo; details: for Pigweed plant response rating: 31 g ai/ha, 0 to 100 scale (0 no effect, 100 complete control), approx. 10 days
[8] = tested on: barnyardgrass (Echinochloa crus-galli); test: Test A preemergence, visual injury rating 0-100 (0 no effect, 100 complete control); assay type: in vivo; details: for Barnyardgrass plant response rating: 31 g ai/ha, 0 to 100 scale (0 no effect, 100 complete control), approx. 10 days
kochia (Kochia scoparia) [9] = test: Test A postemergence, visual injury rating 0-100; assay type: in vivo; details: 0 to 100 scale
[10] = tested on: ryegrass, Italian (Italian ryegrass, Lolium multiflorum); test: Test A postemergence, visual injury rating 0-100; assay type: in vivo; details: 0 to 100 scale
[11] = tested on: wheat (Triticum aestivum); test: Test A postemergence, visual injury rating 0-100; assay type: in vivo; details: 0 to 100 scale
[12] = tested on: ragweed (common ragweed, Ambrosia elatior); test: Test A postemergence, visual injury rating 0-100; assay type: in vivo; details: 0 to 100 scale
[13] = tested on: foxtail, giant (giant foxtail, Setaria faberii); test: Test A postemergence, visual injury rating 0-100; assay type: in vivo; details: 0 to 100 scale
[14] = tested on: barnyardgrass (Echinochloa crus-galli); test: Test A postemergence, visual injury rating 0-100; assay type: in vivo; details: 0 to 100 scale
[15] = tested on: pigweed (Amaranthus retroflexus); test: Test A postemergence, visual injury rating 0-100; assay type: in vivo; details: 0 to 100 scale
[16] = tested on: galium (catchweed bedstraw, Galium aparine); test: Test A postemergence, visual injury rating 0-100; assay type: in vivo; details: 0 to 100 scale
corn (Zea mays) = test: Test A postemergence, visual injury rating 0-100; assay type: in vivo; details: 0 to 100 scale
[17] = tested on: blackgrass (Alopecurus myosuroides); test: Test A postemergence, visual injury rating 0-100; assay type: in vivo; details: 0 to 100 scale
rice (Oryza sativa) = test: Test B flooded paddy test, visual rating 0-100 (0 no effect, 100 complete control); details: Flood, 250 g ai/ha, applied to paddy water, rated after 13 to 15 days

Compound	Ducksalad plant response rating (0 to 100 scale) [1]	Barnyardgrass plant response rating (0 to 100 scale) [2]	Kochia plant response rating (0 to 100 scale) (kochia (Kochia scoparia) [3]; 125 g ai/ha)	Kochia plant response rating (0 to 100 scale) (kochia (Kochia scoparia) [3]; 500 g ai/ha)	Ryegrass, Italian plant response rating (0 to 100 scale) ([4]; 125 g ai/ha)	Ragweed plant response rating (0 to 100 scale) ([5]; 125 g ai/ha)	Foxtail, Giant plant response rating (0 to 100 scale) ([6]; 125 g ai/ha)	Pigweed plant response rating (0 to 100 scale) ([7]; 125 g ai/ha)	Barnyardgrass plant response rating (0 to 100 scale) ([8]; 125 g ai/ha)	Kochia plant response rating (kochia (Kochia scoparia) [9]; 125 g ai/ha)	Ryegrass, Italian plant response rating ([10]; 125 g ai/ha)	Wheat plant response rating ([11]; 125 g ai/ha)	Ragweed plant response rating ([12]; 125 g ai/ha)	Foxtail, Giant plant response rating ([13]; 125 g ai/ha)	Barnyardgrass plant response rating ([14]; 125 g ai/ha)	Pigweed plant response rating ([15]; 125 g ai/ha)	Galium plant response rating ([16]; 125 g ai/ha)	Corn plant response rating (corn (Zea mays); 125 g ai/ha)	Blackgrass plant response rating ([17]; 125 g ai/ha)	Rice plant response rating (0 to 100 scale) (rice (Oryza sativa))	other results
CC1=[N+]([O-])[C@H](C(=O)Nc2cccc(F)c2F)[C@@H](c2ccc(C(F)(F)F)c(F)c2)C1 (relative stereo) [Compound 61, rel-(2S,3R)—N-(2,3-Difluorophenyl)-3-[3-fluoro-4-(trifluoromethyl)phenyl]-3,4-dihydro-5-methyl-2H-pyrrole-2-carboxamide 1-oxide]	74	65	30	80	80	50	90	80	90	0	80	70	0	70	70	30	50	50	50	0	Ryegrass, Italian plant response rating (0 to 100 scale) ([4]; 500 g ai/ha): 90; Ragweed plant response rating (0 to 100 scale) ([5]; 500 g ai/ha): 80; Foxtail, Giant plant response rating (0 to 100 scale) ([6]; 500 g ai/ha): 90; Pigweed plant response rating (0 to 100 scale) ([7]; 500 g ai/ha): 90; Barnyardgrass plant response rating (0 to 100 scale) ([8]; 500 g ai/ha): 90; Kochia plant response rating (kochia (Kochia scoparia) [9]; 500 g ai/ha): 30; Ryegrass, Italian plant response rating ([10]; 500 g ai/ha): 80; Wheat plant response rating ([11]; 500 g ai/ha): 90; Ragweed plant response rating ([12]; 500 g ai/ha): 50; Foxtail, Giant plant response rating ([13]; 500 g ai/ha): 90; Barnyardgrass plant response rating ([14]; 500 g ai/ha): 90; Pigweed plant response rating ([15]; 500 g ai/ha): 50; Galium plant response rating ([16]; 500 g ai/ha): 60; Corn plant response rating (corn (Zea mays); 500 g ai/ha): 90; Blackgrass plant response rating ([17]; 500 g ai/ha): 90
CC1=[N+]([O-])[C@H](C(=O)Nc2cccc(F)c2F)[C@@H](c2ccc(C(F)F)cc2)C1 (relative stereo) [Compound 93, rel-(2S,3R)-3-(4-Difluoromethyl)phenyl)-N-(2,3-difluorophenyl) 3,4-dihydro-5-methyl-2H-pyrrole-2-carboxamide 1-oxide]	100	70	30	80	70	70	90	80	90	0	60	60	0	80	70	50	60	60	60	15	Ryegrass, Italian plant response rating (0 to 100 scale) ([4]; 500 g ai/ha): 90; Ragweed plant response rating (0 to 100 scale) ([5]; 500 g ai/ha): 90; Foxtail, Giant plant response rating (0 to 100 scale) ([6]; 500 g ai/ha): 90; Pigweed plant response rating (0 to 100 scale) ([7]; 500 g ai/ha): 90; Barnyardgrass plant response rating (0 to 100 scale) ([8]; 500 g ai/ha): 90; Kochia plant response rating (kochia (Kochia scoparia) [9]; 500 g ai/ha): 80; Ryegrass, Italian plant response rating ([10]; 500 g ai/ha): 70; Wheat plant response rating ([11]; 500 g ai/ha): 80; Ragweed plant response rating ([12]; 500 g ai/ha): 70; Foxtail, Giant plant response rating ([13]; 500 g ai/ha): 90; Barnyardgrass plant response rating ([14]; 500 g ai/ha): 90; Pigweed plant response rating ([15]; 500 g ai/ha): 80; Galium plant response rating ([16]; 500 g ai/ha): 70; Corn plant response rating (corn (Zea mays); 500 g ai/ha): 90; Blackgrass plant response rating ([17]; 500 g ai/ha): 70
CC1=[N+]([O-])[C@H](C(=O)Nc2cccc(F)c2F)[C@@H](c2ccc(F)c(OC(F)(F)C(F)F)c2)C1 [Compound 54, (2S,3R)—N-(2,3-Difluorophenyl)-3-[4-fluoro-3-(1,1,2,2-tetrafluoroethyoxy)phenyl]-3,4-dihydro-5-methyl-2H-pyrrole-2-carboxamide 1-oxide]	80	35	50		80	50	90	70	90	50	70	50	30	70	70	60	70	70	70	0	Kochia plant response rating (kochia (Kochia scoparia) [3]): 0; Ryegrass, Italian plant response rating [4]: 60; Ragweed plant response rating [5]: 0; Foxtail, Giant plant response rating [6]: 90; Pigweed plant response rating [7]: 0; Barnyardgrass plant response rating [8]: 80; Kochia plant response rating (kochia (Kochia scoparia) [9]; 31 g ai/ha): 0; Ryegrass, Italian plant response rating ([10]; 31 g ai/ha): 0; Wheat plant response rating ([11]; 31 g ai/ha): 0; Ragweed plant response rating ([12]; 31 g ai/ha): 0; Foxtail, Giant plant response rating ([13]; 31 g ai/ha): 30; Barnyardgrass plant response rating ([14]; 31 g ai/ha): 30; Pigweed plant response rating ([15]; 31 g ai/ha): 20; Galium plant response rating ([16]; 31 g ai/ha): 40; Corn plant response rating (corn (Zea mays); 31 g ai/ha): 40; Blackgrass plant response rating ([17]; 31 g ai/ha): 60
CC1=[N+]([O-])[C@@H](C(=O)Nc2cccc(F)c2F)[C@H](c2cccc(OC(C)C)c2)C1 [Compound 55]	100	70	0		80	0	90	0	90	0	70	30	0	80	60	0	30	0	80	0	Kochia plant response rating (kochia (Kochia scoparia) [3]): 0; Ryegrass, Italian plant response rating [4]: 0; Ragweed plant response rating [5]: 0; Foxtail, Giant plant response rating [6]: 70; Pigweed plant response rating [7]: 0; Barnyardgrass plant response rating [8]: 90; Kochia plant response rating (kochia (Kochia scoparia) [9]; 31 g ai/ha): 0; Ryegrass, Italian plant response rating ([10]; 31 g ai/ha): 50; Wheat plant response rating ([11]; 31 g ai/ha): 0; Ragweed plant response rating ([12]; 31 g ai/ha): 0; Foxtail, Giant plant response rating ([13]; 31 g ai/ha): 10; Barnyardgrass plant response rating ([14]; 31 g ai/ha): 20; Pigweed plant response rating ([15]; 31 g ai/ha): 0; Galium plant response rating ([16]; 31 g ai/ha): 0; Corn plant response rating (corn (Zea mays); 31 g ai/ha): 0; Blackgrass plant response rating ([17]; 31 g ai/ha): 0
